Data as given in PubChem BioAssay (NCI).
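48-hour exposure; five concentrations; linearly interpolated endpoints. TGI marks complete inhibition of growth.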 *1 amine or outer side, *2 acyl side, *3 side chain or, on linkers, in order; H or OH if unused. Where a SMILES comes first, the peptide text is derived from it. [ ]: non-standard residue; d: D form. The star is where a group is joined. ξ: configuration not given here. NMeY = CN[C@@H](Cc1ccc(O)cc1)C(=O)O; Ethylenediamine = C(CN[*:2])N[*:1]; ξNMeL = CNC(CC(C)C)C(=O)O; Cbz = O=C(OCc1ccccc1)*; Lac = C[C@H](O)C(=O)O; ξA = CC(N)C(=O)O

What was measured:
Assay in all cases: NCI-60 cell line screen, 48 h
A498 renal = system: A498 renal
COLO 205 colon = system: COLO 205 colon
HCT-116 colon = system: HCT-116 colon
K-562 leukemia = system: K-562 leukemia
KM12 colon = system: KM12 colon
MCF7 breast = system: MCF7 breast
MDA-MB-231 breast = system: MDA-MB-231 breast
MDA-N = system: MDA-N
NCI-H522 lung = system: NCI-H522 lung
OVCAR-4 ovarian = system: OVCAR-4 ovarian
OVCAR-8 ovarian = system: OVCAR-8 ovarian
RPMI-8226 leukemia = system: RPMI-8226 leukemia
RXF 393 renal = system: RXF 393 renal
SF-268 CNS = system: SF-268 CNS
SF-539 CNS = system: SF-539 CNS
SK-MEL-28 melanoma = system: SK-MEL-28 melanoma
SK-OV-3 ovarian = system: SK-OV-3 ovarian
SN12C renal = system: SN12C renal
SNB-19 CNS = system: SNB-19 CNS
UACC-257 melanoma = system: UACC-257 melanoma

Row | Structure (SMILES) | TGI (A498 renal) [µM] | TGI (COLO 205 colon) [µM] | TGI (HCT-116 colon) [µM] | TGI (K-562 leukemia) [µM] | TGI (KM12 colon) [µM] | TGI (MCF7 breast) [µM] | TGI (MDA-MB-231 breast) [µM] | TGI (MDA-N) [µM] | TGI (NCI-H522 lung) [µM] | TGI (OVCAR-4 ovarian) [µM] | TGI (OVCAR-8 ovarian) [µM] | TGI (RPMI-8226 leukemia) [µM] | TGI (RXF 393 renal) [µM] | TGI (SF-268 CNS) [µM] | TGI (SF-539 CNS) [µM] | TGI (SK-MEL-28 melanoma) [µM] | TGI (SK-OV-3 ovarian) [µM] | TGI (SN12C renal) [µM] | TGI (SNB-19 CNS) [µM] | TGI (UACC-257 melanoma) [µM]
1 | COc1ccc(C[C@@H](C(=O)NCCNC(=O)C(CC(C)C)N(C)C(=O)[C@@H]2CCCN2C(=O)[C@H](C)O)N(C)C(=O)[C@@H]2CCCN2C(=O)[C@H](CC(C)C)NC(=O)C(C)NC(=O)OCc2ccccc2)cc1 (stereo not given in full) (Cbz-[ξA]LP[NMeY](Me)-{Ethylenediamine-ξNMeL-Pro-Lac}) | > 100 | > 100 | > 100 | > 100 | > 100 | > 100 | > 100 | > 100 | > 100 | > 100 | > 100 | > 100 | > 100 | > 100 | > 100 | > 100 | > 100 | > 100 | > 100 | > 100
2 | O=C1c2c(Br)sc(Br)c2[C@@H](Cl)[C@H]1Cl | > 100 | 31.8 | 48.8 | > 100 | 65.4 | 53.5 | 36.8 | 40.3 | 10.9 | 37.4 | 42.5 | 54.6 | 30.7 | 39.8 | 27.1 | 59.3 | 36.3 | 36.7 | 38.5 | 30.9
3 | CCOC(=O)c1nc2ccccc2nc1NCc1ccc(OC)c(OC)c1 | > 100 | > 100 | > 100 | > 100 | > 100 | > 100 | > 100 | > 100 | > 100 | > 100 | > 100 | > 100 | > 100 | > 100 | > 100 | > 100 | > 100 | > 100 | – | > 100
4 | O=[N+]([O-])c1ccc(-n2nc3ccc4c(no[n+]4[O-])c3[n+]2[O-])c([N+](=O)[O-])c1 | 16.3 | 3.29 | 3.74 | 5.75 | 13.1 | 3.98 | 4.64 | 4.47 | 4.03 | 3.19 | 6.05 | 6.8 | 5.37 | 13.8 | 12.7 | 6.47 | 23 | 7.03 | 16.5 | 3.65
5 | C=C1CCCC(C)(C)[C@H]1C/C=C1\CCOC1=O | 31 | 33.4 | 25.8 | 26.5 | 31.8 | 25.4 | 31.6 | 33.3 | 40.4 | 26.8 | 38.5 | > 100 | – | 23.9 | 34.5 | 29.6 | 57 | 35.2 | 30.7 | 24.5
6 | O=C1CCC(=O)N1CNc1ccc2c(c1)S(=O)(=O)c1ccccc1O2 | > 100 | > 100 | > 100 | > 100 | > 100 | > 100 | > 100 | > 100 | > 100 | > 100 | > 100 | > 100 | > 100 | > 100 | > 100 | > 100 | – | > 100 | > 100 | > 100
7 | C[C@@H](CC(=O)O)OC1OC(COC(=O)C(C)(C)C)C(OC(=O)C(C)(C)C)C(OC(=O)C(C)(C)C)C1OC(=O)C(C)(C)C (stereo not given in full) | > 100 | > 100 | > 100 | > 100 | > 100 | > 100 | > 100 | > 100 | > 100 | – | > 100 | 71.8 | > 100 | > 100 | > 100 | > 100 | > 100 | > 100 | 98.2 | > 100
8 | CO/N=C(/C)c1cccc(Nc2nc3ccc(Cl)cc3c3[nH]c4ccccc4c23)c1 | 14.2 | 19.9 | 14.7 | 34.6 | 14.6 | 26.2 | 27.8 | 24.3 | 13.4 | – | 23.1 | 17 | 6.92 | 29.5 | 30.1 | – | 49.6 | 25.9 | 35.6 | 29.1
9 | N#Cc1c(C#N)c(-c2ccccc2)n(Cc2ccccc2)c1N | > 100 | > 100 | > 100 | > 100 | > 100 | > 100 | 86.4 | > 100 | > 100 | > 100 | 75.4 | > 100 | > 100 | > 100 | 63.4 | – | > 100 | > 100 | > 100 | > 100
10 | C=C1[C@H]2O[C@H]2[C@@H](OC(C)=O)[C@@]2(C)[C@@H](OC(C)=O)C[C@@H](OC(=O)CCC)[C@@](C)(O)[C@@H]2[C@@H](OC(C)=O)[C@]2(O)[C@@H](C)C(=O)O[C@H]2[C@H]1Cl | > 100 | > 100 | > 100 | > 100 | > 100 | > 100 | > 100 | > 100 | > 100 | > 100 | > 100 | > 100 | > 100 | > 100 | > 100 | > 100 | – | > 100 | > 100 | > 100
11 | CC(=O)NC1C(OC(C)C(=O)NC(C(=O)NC(CCC(=O)NCCCNC2c3ccccc3Nc3cccc([N+](=O)[O-])c32)C(N)=O)C(C)C)C(O)C(CO)OC1(C)OCc1ccccc1 (stereo not given) | 4.11 | 7.77 | 1.3 | 7.65 | 3.48 | 2.85 | 3.02 | 4.78 | 2.37 | 3.64 | 3.28 | 1.01 | 2.13 | 3.3 | – | – | 3.33 | 3.82 | 3.67 | 5.14
